From publication PMC10049421, “Anticancer Activity of Sunitinib Analogues in Human Pancreatic Cancer Cell Cultures under Normoxia and Hypoxia” (International Journal of Molecular Sciences, 2023) come the findings set out here.

Series [1] has as its system MIA PaCa-2 and PANC-1 cells. Nature of the series: MTT cell viability, both pancreatic cancer cell lines. The class given is cell-based, human. The conditions noted are these: for reduction of viability compared to sunitinib / reduction of cell viability: 1 µM; for reduction of viability compared to sunitinib: 72 h, both cancer cell lines; for reduction of cell viability: 72 h of incubation, at least one cell line; for activity on cell viability, comparison between cell lines: EC50 comparison MIA PaCa-2 vs PANC-1. How it is done: Cell viability was tested using MTT (3-(4,5-dimethylthiazol-2-yl)-2,5-diphenyltetrazolium bromide; Sigma-Aldrich Co.) assay, as described previously Briefly, MIA PaCa-2 and PANC-1 cells were seeded in 96-well plates (Corning, NY, USA) in a volume of 100 μL (4000 cells/well). After 24 h incubation, the cells were treated with sunitinib and its derivatives. Only the medium without cells was used as a positive control, and the medium with 0.5% DMSO (Sigma-Aldrich Co.) served as a negative control. After 72 h the cells were incubated with the 0.5 mg/mL of MTT solution for the next 4 h. The coloured formazan product was dissolved in 100 μL DMSO. The absorbance was measured spectrophotometrically at wavelengths 570 and 630 nm. […] When determining the EC50 values of the compounds under hypoxic conditions, the growth medium was supplemented with 100 µM of CoCl2 solution (97%, Alfa Aesar, MA, USA).

The next series relates to human fibroblasts. The series is described as follows: MTT cell viability, human fibroblasts (selectivity). Format: cell-based. The following applies: human fibroblasts.
Series [2] relates to MIA PaCa-2 cells. Nature of the series: 'Wound healing' migration assay, MIA PaCa-2. The class given is cell-based, human. The following applies: for inhibition of migration, hypoxia compared with normoxia: MIA PaCa-2. How it is done:
(§1) Cell migration was tested by the ‘wound’ healing assay, as described elsewhere. Briefly, MIA PaCa-2 and PANC-1 cells were seeded into 24-well plates (Corning). MIA PaCa-2 at a density of 80,000 cells/well and PANC-1 at a density of 60,000 cells/well in 500 μL of medium and incubated in a humidified atmosphere containing 5% CO2 at 37 °C for 1 day. Then the monolayers were scratched with a sterile 100 μL pipette plastic tip in the centre of the well. The old cell medium is aspirated, the wells are rinsed with 400 μL phosphate-buffered saline (PBS, Gibco). […] Photos of ‘wounds’ were taken every 24 h for 3 days and the compound effect was evaluated by measuring the size of the “wound” area. Images were analysed by TScratch software (CSE Lab, Zurich, Switzerland).

For series [3], the system named is MIA PaCa-2 cells. The series is described as follows: Clonogenic assay, MIA PaCa-2. The class given is cell-based, human. The method, then:
(§2) Compound effect on cell colony formation and growth was established by clonogenic assay, as previously published. […] Cells were incubated in a humidified atmosphere containing 5% CO2 at 37 °C and grown for 8 days. After incubation, the cells were rinsed with PBS and fixed with 10% formaldehyde, methanol-free (ThermoFisher Scientific, Waltham, MA, USA) solution for 20 min. Then the cells were rinsed with PBS two more times, and cell colonies were stained with 0.1% aqueous crystal violet solution (Sigma-Aldrich Co.) for 20 min, followed by rinses with sterile deionized water to remove the excess dye. Photos of colonies were taken using the G:BOX gel documentation system (Syngene International Ltd., Bengaluru, India) and Genesys software (Syngene International Ltd.). The number of colonies and their area were calculated using GeneTools colony and cell counting software (Syngene International Ltd.) according to the manufacturer’s instructions. Cell colony area and number in control groups were normalized to 100%. The percentage of drug-treated colony area and number were compared to the control.

Series [4] concerns PANC-1 cells. Nature of the series: 'Wound healing' migration assay, PANC-1. Format: cell-based, human. The conditions noted are these: PANC-1. The method, then: as §1
Series [5] has as its system PANC-1 cells. The series is described as follows: Clonogenic assay, PANC-1. The conditions noted are these: 90% of EC50, normoxia. Format: cell-based, human. How it is done: as §2

For the molecule `COc1ccc(C2CC(c3ccc4ccccc4c3)=NN2C2=NC(=O)/C(=C3/C(=O)Nc4ccc(OC)cc43)S2)cc1` (stereo not drawn) [EMAC4007], in series [1], the “reduction of viability compared to sunitinib” value (from here on “reduction of viability”) is listed as “statistically significantly stronger reduced” and the “reduction of cell viability” value was determined as 90%. Also, the “effect on viability of non-cancerous cells (human fibroblasts)” value in the series on human fibroblasts was “significantly reduce the viability of non-cancerous cells”.
For the molecule `COc1ccc(C2CC(c3cccs3)=NN2C2=NC(=O)/C(=C3/C(=O)Nc4ccc(I)cc43)S2)cc1` (stereo not drawn) [EMAC4017], the “inhibition of migration, hypoxia compared with normoxia” value (“inhibition … compared with normoxia” for short) in the series on MIA PaCa-2 cells [2] is listed as “less than under normoxia”. For the same molecule, in series [1], the “reduction of viability” value is “statistically significantly stronger reduced” and the “reduction of cell viability” value is listed as 90%. Also, the “MIA PaCa-2 cell colony growth, hypoxia compared with normoxia” value in the series with MIA PaCa-2 cells [3] was “stronger effect on the MIA PaCa-2 cell colony growth under hypoxia than normoxia”. For the same molecule, the “MIA PaCa-2 cell colony formation” value in the series with MIA PaCa-2 cells [3] (hypoxia) is reported as “significantly reduced the MIA PaCa-2 cell colony formation”. Moreover, the “MIA PaCa-2 colony number compared to sunitinib” value in the series with MIA PaCa-2 cells [3] (lower concentration (10% of EC50), hypoxia) is “stronger than sunitinib”. Also, the “inhibition … compared with normoxia” value with PANC-1 cells [4] is “stronger under hypoxia than normoxia”.
Turning to `COc1ccc(C2CC(c3ccc4ccccc4c3)=NN2C2=NC(=O)/C(=C3/C(=O)Nc4ccc(C)cc43)S2)cc1` (stereo not drawn) [EMAC4008], in series [1], the “reduction of viability” value is “statistically significantly stronger reduced”; the “reduction of cell viability” value is given as 90%; the “activity on cell viability, comparison between cell lines” value was “more active in the PANC-1 cell line”. In addition, the “activity on cell viability, hypoxia compared with normoxia” value in series [1] (EC50 comparison) is “more active against both cell lines under hypoxia conditions”. In the series with MIA PaCa-2 cells [3], the “MIA PaCa-2 cell colony growth, hypoxia compared with normoxia” value was “stronger effect on the MIA PaCa-2 cell colony growth under hypoxia than normoxia”. Further, the “inhibition … compared with normoxia” value in the series on PANC-1 cells [4] is given as “stronger under hypoxia than normoxia”.
Turning to `COc1ccc(C2CC(c3ccc4ccccc4c3)=NN2C2=NC(=O)/C(=C3/C(=O)Nc4ccc(C(F)(F)F)cc43)S2)cc1` (stereo not drawn) [EMAC4009], in series [1], the “reduction of viability” value is listed as “statistically significantly stronger reduced” and the “reduction of cell viability” value came to 90%. For the same molecule, the “effect on viability of non-cancerous cells (human fibroblasts)” value in the series with human fibroblasts is “significantly reduce the viability of non-cancerous cells”.
With `COc1ccc(C2CC(c3ccc4ccccc4c3)=NN2C2=NC(=O)/C(=C3/C(=O)Nc4ccc(I)cc43)S2)cc1` (stereo not drawn) [EMAC4006], in the series with MIA PaCa-2 cells [2], the “inhibition … compared with normoxia” value is “less than under normoxia”. The cell migration result with MIA PaCa-2 cells [2] (normoxia, higher concentrations (90% of EC50)) is reported as “inhibited cell migration”. Besides, in series [1], the “reduction of viability” value is on record as “statistically significantly stronger reduced”; the “reduction of cell viability” value is 90%; the “activity on cell viability, comparison between cell lines” value is given as “inhibited more efficiently the cell viability of the MIA PaCa-2 cell line”. Moreover, the “MIA PaCa-2 cell colony formation” value with MIA PaCa-2 cells [3] (90% of EC50, normoxia) was “statistically significantly inhibited”. Besides, the “inhibition … compared with normoxia” value with PANC-1 cells [4] is given as “stronger under hypoxia than normoxia”. For the same molecule, the “PANC-1 cell colony formation (number) compared to the control” value with PANC-1 cells [5] is “inhibited the colony formation of PANC-1 cells”.
